Results published in publication PMC4664181 (ChemMedChem, 2009).
Entries after “also recorded” stand apart in the source; their conditions may differ. Like-named read-outs stand apart in the source and are kept apart here. Each block holds one compound with its values, some of them ahead of it.

Assays:
NR1/NR2C [1] = biological target: T1, NR1/NR2C (Rattus norvegicus, UniProt Q00961); format: cell-based; conditions: NR1/NR2C; for I/Imax (relative maximal response): relative to maximal response to glutamate (1.0)
NR1/NR2B [2] = biological target: T2, NR1/NR2B (Rattus norvegicus, UniProt Q00960); format: cell-based; conditions: NR1/NR2B; for EC50: NR = no response up to 1000 μM
NR1/NR2A [3] = biological target: T3, NR1/NR2A (Rattus norvegicus, UniProt Q00959); format: cell-based; conditions: for EC50: NR = no response up to 1000 μM
NR1/NR2D [4] = biological target: T4, NR1/NR2D (Rattus norvegicus, UniProt Q62645); format: cell-based; conditions: for Agonist activity (in words) / EC50 / pEC50 (mean ± SEM) / I/Imax (relative maximal response): NR1/NR2D; for I/Imax (relative maximal response): relative to maximal response to glutamate (1.0)
native NMDA receptors [5] = test: Radioligand binding assay; conditions: rat brain synaptosomes; for [3H]CGP39653 mean pKi ± SEM: three to five experiments; for Ki: read-out: [3H]CGP39653 Ki, mean of three to five experiments
NR1/NR2A [6] = biological target: T3, NR1/NR2A; conditions: cited from earlier work
NR1/NR2D [7] = biological target: T4, NR1/NR2D; conditions: cited from earlier work
NR1/NR2B [8] = biological target: T2, NR1/NR2B; conditions: cited from earlier work
native NMDA receptors [9] = conditions: read-out: [3H]CGP39653 Ki; rat brain synaptosomes; cited from earlier work
NR1/NR2C [10] = biological target: T1, NR1/NR2C; conditions: cited from earlier work
[11] = system: native excitatory amino acid transporters (EAATs); conditions: cited from earlier work
NR2D(Y732F) = conditions: mutant vs wild type NR2D; cited from earlier work
[12] = system: NR2A (Y730 to phenylalanine); conditions: mutant vs wild type NR2A; cited from earlier work
NR1/NR2C [13] = biological target: NR1/NR2C (Rattus norvegicus, UniProt P35439+Q00961); format: cell-based
NR1/NR2B [14] = biological target: NR1/NR2B (Rattus norvegicus, UniProt P35439+Q00960); format: cell-based
NR1/NR2D [15] = biological target: NR1/NR2D (Rattus norvegicus, UniProt P35439+Q62645); format: cell-based
[16] = relative to maximal response to glutamate (1.0)

T4 sequence (Q62645 28-1323, other chains not shown): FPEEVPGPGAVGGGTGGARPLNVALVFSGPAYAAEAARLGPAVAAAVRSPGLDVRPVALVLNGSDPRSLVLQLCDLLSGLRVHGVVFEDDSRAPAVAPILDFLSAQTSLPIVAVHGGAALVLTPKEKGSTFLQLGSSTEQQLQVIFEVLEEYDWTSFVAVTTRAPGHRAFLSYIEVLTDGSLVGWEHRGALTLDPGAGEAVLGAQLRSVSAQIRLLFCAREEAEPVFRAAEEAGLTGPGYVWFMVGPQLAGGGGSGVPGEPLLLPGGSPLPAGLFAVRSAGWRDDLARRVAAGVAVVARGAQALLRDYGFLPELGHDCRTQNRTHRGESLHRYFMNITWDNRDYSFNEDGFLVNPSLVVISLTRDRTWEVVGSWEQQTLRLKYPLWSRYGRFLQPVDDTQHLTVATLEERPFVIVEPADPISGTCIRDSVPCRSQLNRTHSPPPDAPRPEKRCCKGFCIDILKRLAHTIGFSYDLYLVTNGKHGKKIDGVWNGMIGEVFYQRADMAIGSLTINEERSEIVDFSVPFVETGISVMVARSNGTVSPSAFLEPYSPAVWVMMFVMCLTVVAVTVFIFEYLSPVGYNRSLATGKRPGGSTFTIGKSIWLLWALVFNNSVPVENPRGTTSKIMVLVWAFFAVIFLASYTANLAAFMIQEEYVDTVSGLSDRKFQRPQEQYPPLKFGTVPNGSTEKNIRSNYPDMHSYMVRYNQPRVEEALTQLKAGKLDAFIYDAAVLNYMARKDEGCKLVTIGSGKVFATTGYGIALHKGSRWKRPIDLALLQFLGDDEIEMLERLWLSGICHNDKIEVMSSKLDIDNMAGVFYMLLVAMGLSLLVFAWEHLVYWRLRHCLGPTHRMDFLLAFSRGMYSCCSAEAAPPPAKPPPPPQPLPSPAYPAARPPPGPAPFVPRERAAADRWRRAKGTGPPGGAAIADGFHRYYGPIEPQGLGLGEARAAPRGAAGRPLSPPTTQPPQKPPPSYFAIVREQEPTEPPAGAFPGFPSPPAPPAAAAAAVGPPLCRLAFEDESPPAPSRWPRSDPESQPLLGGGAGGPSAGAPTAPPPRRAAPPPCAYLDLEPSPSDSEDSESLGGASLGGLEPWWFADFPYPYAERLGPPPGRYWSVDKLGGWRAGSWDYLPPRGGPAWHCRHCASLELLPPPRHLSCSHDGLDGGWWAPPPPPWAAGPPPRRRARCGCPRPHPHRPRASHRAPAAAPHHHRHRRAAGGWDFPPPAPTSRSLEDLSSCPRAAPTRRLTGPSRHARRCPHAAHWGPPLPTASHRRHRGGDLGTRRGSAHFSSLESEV
T3 sequence (Q00959 23-1464, other chains not shown): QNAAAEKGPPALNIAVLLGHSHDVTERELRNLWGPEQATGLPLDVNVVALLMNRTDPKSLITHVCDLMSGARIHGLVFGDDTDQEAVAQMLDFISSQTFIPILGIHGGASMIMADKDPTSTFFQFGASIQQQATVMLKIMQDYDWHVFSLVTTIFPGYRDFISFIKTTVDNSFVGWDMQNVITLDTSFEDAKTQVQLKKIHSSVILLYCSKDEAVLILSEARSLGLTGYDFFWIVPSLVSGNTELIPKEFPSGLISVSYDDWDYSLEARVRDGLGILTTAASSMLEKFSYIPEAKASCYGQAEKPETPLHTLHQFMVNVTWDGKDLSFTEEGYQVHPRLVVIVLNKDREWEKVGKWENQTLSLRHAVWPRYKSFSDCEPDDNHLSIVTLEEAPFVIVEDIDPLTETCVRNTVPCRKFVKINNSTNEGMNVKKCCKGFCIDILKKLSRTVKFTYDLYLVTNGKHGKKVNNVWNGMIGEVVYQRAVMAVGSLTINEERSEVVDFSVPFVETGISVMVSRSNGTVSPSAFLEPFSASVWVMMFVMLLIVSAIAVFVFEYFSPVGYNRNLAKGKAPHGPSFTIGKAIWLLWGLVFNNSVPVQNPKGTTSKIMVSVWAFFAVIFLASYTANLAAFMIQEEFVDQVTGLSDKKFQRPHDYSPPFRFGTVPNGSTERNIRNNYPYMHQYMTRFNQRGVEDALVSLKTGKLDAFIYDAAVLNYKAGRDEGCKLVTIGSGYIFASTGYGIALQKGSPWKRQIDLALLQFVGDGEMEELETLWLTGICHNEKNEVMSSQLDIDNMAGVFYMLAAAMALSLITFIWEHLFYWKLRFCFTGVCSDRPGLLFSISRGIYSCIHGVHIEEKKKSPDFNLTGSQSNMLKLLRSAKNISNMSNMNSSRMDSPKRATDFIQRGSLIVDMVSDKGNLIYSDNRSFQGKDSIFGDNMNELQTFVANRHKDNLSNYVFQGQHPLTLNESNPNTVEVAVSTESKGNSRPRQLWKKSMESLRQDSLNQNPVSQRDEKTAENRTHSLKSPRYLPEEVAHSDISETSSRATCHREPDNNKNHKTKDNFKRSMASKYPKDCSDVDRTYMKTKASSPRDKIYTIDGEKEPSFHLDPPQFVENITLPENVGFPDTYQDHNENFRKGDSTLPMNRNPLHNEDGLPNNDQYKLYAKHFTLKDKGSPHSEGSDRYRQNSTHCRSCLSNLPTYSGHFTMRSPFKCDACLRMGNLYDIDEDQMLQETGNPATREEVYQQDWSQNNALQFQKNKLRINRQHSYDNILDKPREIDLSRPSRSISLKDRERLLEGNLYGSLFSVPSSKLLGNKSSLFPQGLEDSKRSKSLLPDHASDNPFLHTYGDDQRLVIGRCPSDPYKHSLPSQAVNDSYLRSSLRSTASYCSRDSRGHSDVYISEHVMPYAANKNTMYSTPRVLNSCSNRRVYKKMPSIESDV
T2 sequence (Q00960 27-1482, other chains not shown): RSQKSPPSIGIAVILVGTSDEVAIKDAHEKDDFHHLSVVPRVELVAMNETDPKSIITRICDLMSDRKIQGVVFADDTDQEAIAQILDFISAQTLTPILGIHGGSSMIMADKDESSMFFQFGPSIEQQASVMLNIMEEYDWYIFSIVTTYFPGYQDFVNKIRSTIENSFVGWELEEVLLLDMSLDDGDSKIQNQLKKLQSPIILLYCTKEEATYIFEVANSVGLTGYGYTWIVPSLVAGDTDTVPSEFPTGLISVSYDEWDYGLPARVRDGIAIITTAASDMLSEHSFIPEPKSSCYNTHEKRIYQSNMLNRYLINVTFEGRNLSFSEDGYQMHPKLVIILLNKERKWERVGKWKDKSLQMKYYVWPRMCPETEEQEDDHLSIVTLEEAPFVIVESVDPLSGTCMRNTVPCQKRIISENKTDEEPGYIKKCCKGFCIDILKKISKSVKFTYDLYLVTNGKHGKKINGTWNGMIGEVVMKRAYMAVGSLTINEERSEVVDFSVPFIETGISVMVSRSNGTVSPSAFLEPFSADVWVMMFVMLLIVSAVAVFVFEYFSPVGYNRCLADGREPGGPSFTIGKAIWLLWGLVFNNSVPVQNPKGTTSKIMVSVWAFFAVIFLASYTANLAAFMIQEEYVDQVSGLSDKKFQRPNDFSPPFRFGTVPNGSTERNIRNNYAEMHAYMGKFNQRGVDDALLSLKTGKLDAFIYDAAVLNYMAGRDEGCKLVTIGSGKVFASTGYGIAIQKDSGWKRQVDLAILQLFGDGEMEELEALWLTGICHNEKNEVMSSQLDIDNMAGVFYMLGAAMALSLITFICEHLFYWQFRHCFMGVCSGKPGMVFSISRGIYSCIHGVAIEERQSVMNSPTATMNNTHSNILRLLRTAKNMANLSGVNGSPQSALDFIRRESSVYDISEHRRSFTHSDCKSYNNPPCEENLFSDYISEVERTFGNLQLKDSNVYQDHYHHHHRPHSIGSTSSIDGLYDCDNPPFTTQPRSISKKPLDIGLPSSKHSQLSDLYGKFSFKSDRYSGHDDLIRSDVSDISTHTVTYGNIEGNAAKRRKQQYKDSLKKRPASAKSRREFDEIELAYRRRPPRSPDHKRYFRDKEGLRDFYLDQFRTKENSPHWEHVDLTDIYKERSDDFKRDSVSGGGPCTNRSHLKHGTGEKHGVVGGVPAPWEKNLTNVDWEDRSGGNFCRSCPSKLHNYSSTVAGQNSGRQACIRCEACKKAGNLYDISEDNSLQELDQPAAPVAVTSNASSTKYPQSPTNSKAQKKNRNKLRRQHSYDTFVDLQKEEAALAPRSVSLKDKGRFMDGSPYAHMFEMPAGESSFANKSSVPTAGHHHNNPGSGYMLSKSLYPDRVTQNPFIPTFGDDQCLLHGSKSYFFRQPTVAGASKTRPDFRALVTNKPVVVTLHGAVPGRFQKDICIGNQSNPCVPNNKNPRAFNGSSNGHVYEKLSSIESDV
NR1/NR2D (Rattus norvegicus, UniProt P35439+Q62645), sequence (Q62645 28-1323, other chains not shown): as the sequence (Q62645 28-1323, other chains not shown) above

SMILES: O=C(O)[C@H]1CN[C@H]1C(=O)O [D-cis-ADC, (2R,3S)-Azetidine-2,3-dicarboxylic acid]
Agonist activity (in words) (NR1/NR2C [1]): activated; also recorded: partial agonist
EC50 (NR1/NR2C [1]): 720 µM
pEC50 (mean ± SEM) (NR1/NR2C [1]): 3.15±0.06
I/Imax (relative maximal response) (NR1/NR2C [1]): 0.47 ± 0.03
Agonist activity (in words) (NR1/NR2B [2]): activated
EC50 (NR1/NR2B [2]): > 3000 µM
EC50 (NR1/NR2A [3]): > 1000 µM
Agonist activity (in words) (NR1/NR2D [4]): activated; also recorded: partial agonist
EC50 (NR1/NR2D [4]): 230 µM
pEC50 (mean ± SEM) (NR1/NR2D [4]): 3.63±0.01
I/Imax (relative maximal response) (NR1/NR2D [4]): 0.67 ± 0.01
[3H]CGP39653 mean pKi ± SEM (native NMDA receptors [5]): 4.74 ± 0.13
Ki (native NMDA receptors [5]): 21 µM

SMILES: CN[C@H](CC(=O)O)C(=O)O [NMDA, N-methyl-D-aspartic acid]
EC50 (NR1/NR2A [6]): 75 µM
pEC50 (mean ± SEM) (NR1/NR2A [6]): 4.13±0.07
I/Imax (relative maximal response) (NR1/NR2A [6]; relative to glutamate (1.0)): 0.90 ± 0.04
EC50 (NR1/NR2D [7]; NR1/NR2D): 8.3 µM
pEC50 (mean ± SEM) (NR1/NR2D [7]; NR1/NR2D): 5.08±0.04
I/Imax (relative maximal response) (NR1/NR2D [7]; NR1/NR2D, relative to glutamate (1.0)): 0.80 ± 0.02
EC50 (NR1/NR2B [8]): 22 µM
pEC50 (mean ± SEM) (NR1/NR2B [8]): 4.66±0.03
I/Imax (relative maximal response) (NR1/NR2B [8]; relative to glutamate (1.0)): 0.77 ± 0.01
Ki (native NMDA receptors [9]): 6.2 µM
EC50 (NR1/NR2C [10]): 23 µM
pEC50 (mean ± SEM) (NR1/NR2C [10]): 4.63±0.02
I/Imax (relative maximal response) (NR1/NR2C [10]; relative to glutamate (1.0)): 0.73 ± 0.02

SMILES: C[C@H](C[C@H](N)C(=O)O)C(=O)O [SYM2081, (2S,4R)-4-methylglutamate]
Higher potency at NR1/NR2D over NR1/NR2A (NR1/NR2D [7]; NR1/NR2D vs NR1/NR2A): 46 fold

SMILES: N[C@@H](CCC(=O)O)C(=O)O [glutamate, (S)-glutamate]
Change of potency on NR2D(Y732F) (in words) (NR2D(Y732F)): slightly increased
Decrease of potency by mutation Y730 to phenylalanine in NR2A [12]: 45 fold

More lines, main results first:

EC50 (NR1/NR2C [1]): > 1000 µM
Agonist activity (in words) (NR1/NR2B [2]): unable to activate
EC50 (NR1/NR2B [2]): > 1000 µM
Agonist activity (in words) (NR1/NR2A [3]): unable to activate
EC50 (NR1/NR2A [3]): > 1000 µM
EC50 (NR1/NR2D [4]): > 1000 µM
Affinity for glutamate binding site of native NMDA receptors (in words) (native NMDA receptors [5]): essentially without affinity
Ki (native NMDA receptors [5]): > 100 µM
SMILES: O=C(O)[C@H]1NC[C@H]1C(=O)O [L-cis-ADC]
Agonist activity (in words) (NR1/NR2C [1]): only at high concentrations (1000 μM) some activation
Agonist activity (in words) (NR1/NR2D [4]): only at high concentrations (1000 μM) some activation

EC50 (NR1/NR2C [1]): 95 µM
pEC50 (mean ± SEM) (NR1/NR2C [1]): 4.02±0.02
I/Imax (relative maximal response) (NR1/NR2C [1]): 0.73 ± 0.03
pEC50 (mean ± SEM) (NR1/NR2B [2]): 3.76±0.01
EC50 (NR1/NR2B [2]): 170 µM
I/Imax (relative maximal response) (NR1/NR2B [2]; [16]): 0.48 ± 0.01
Agonist activity (in words) (NR1/NR2A [3]): able to (partially) activate
pEC50 (mean ± SEM) (NR1/NR2A [3]): 3.32±0.03
EC50 (NR1/NR2A [3]): 470 µM
I/Imax (relative maximal response) (NR1/NR2A [3]; [16]): 0.38 ± 0.02
EC50 (NR1/NR2D [4]): 50 µM
pEC50 (mean ± SEM) (NR1/NR2D [4]): 4.30±0.02
Preference (agonist potency) for NR1/NR2D over NR1/NR2A (NR1/NR2D [4]; NR1/NR2D vs NR1/NR2A): 9.4 fold
Preference (agonist potency) for NR1/NR2D over NR1/NR2B (NR1/NR2D [4]; NR1/NR2D vs NR1/NR2B): 3.4 fold
Preference (agonist potency) for NR1/NR2D over NR1/NR2C (NR1/NR2D [4]; NR1/NR2D vs NR1/NR2C): 1.9 fold
I/Imax (relative maximal response) (NR1/NR2D [4]): 0.80 ± 0.01
[3H]CGP39653 mean pKi ± SEM (native NMDA receptors [5]): 5.04 ± 0.10
Ki (native NMDA receptors [5]): 10 µM
SMILES: O=C(O)[C@H]1CN[C@@H]1C(=O)O [L-trans-ADC]
Affinity at native EAATs (in words) [11]: affinity in the medium micromolar range

Agonist activity (in words) (NR1/NR2C [1]): activated
EC50 (NR1/NR2C [13]): > 1000 µM
Agonist activity (in words) (NR1/NR2B [2]): activated
EC50 (NR1/NR2B [14]): > 1000 µM
EC50 (NR1/NR2A [3]): > 1000 µM
Agonist activity (in words) (NR1/NR2D [4]): activated
I/Imax (relative maximal response) (NR1/NR2D [4]): 0.69 ± 0.01
EC50 (NR1/NR2D [15]): 660 µM
Affinity for glutamate binding site of native NMDA receptors (in words) (native NMDA receptors [5]): essentially without affinity
[3H]CGP39653 mean pKi ± SEM (native NMDA receptors [5]): 4.05 ± 0.03
Ki (native NMDA receptors [5]): 90 µM
SMILES: O=C(O)[C@@H]1CN[C@H]1C(=O)O [D-trans-ADC, (2R,3R)-Azetidine-2,3-dicarboxylic acid]
